Results reported in patent US20120277306A1, “COMPOSITION CONTAINING METAL-ACIDIC AMINO ACID CHELATE ACCELERATING ABSORPTION OF METAL” (priority 2006, published 2012).

What was measured:
[1] = Plasma zinc concentration over time after administration of zinc samples; format: in vivo, Sprague-Dawley rat; conditions: zinc 40 mg/kg; for plasma zinc concentration over time: blood at 0.5, 1, 2, 4, 8 hours
Description: These experimental animals were randomly assigned into a zinc sulfate-administered group, a zinc arginine-administered group and a zinc-aspartate chelate-administered group. After animals were fasted for 12 hours, each zinc sample was administered to rats, such that a zinc concentration in the sample is 40 mg/kg. After administration of the samples was complete, blood was collected at a time point of 0.5, 1, 2, 4, and 8 hours, respectively, and treated with heparin. Then, blood plasma was stored in a refrigerator and used for analysis of zinc concentrations. On the other hand, in order to examine distribution of zinc in the tissue, each zinc sample was administered to rats. After 8 hours, animals were sacrificed to remove organs. Zinc concentrations in the blood plasma and tissues were determined by fluorometry using Zinquin.

[2] = test system: patients with chronic prostatitis; experiment: Clinical trial of zinc-aspartate chelate in chronic prostatitis patients (NIH-CPSI); format: in vivo, human
Description: 34 patients with a medical history of more than 5 years of chronic prostatitis were administered with a zinc-aspartate chelate at a dose of 50 mg/day for 8 weeks. Clinical trials were conducted at the Department of Urology, College of Medicine, Korea University (Seoul, Korea). Prostatitis classification and symptom relief were analyzed according to National Institutes of Health Chronic Prostatitis Symptom Index (NIH-CPSI, proposed by NIH in 1995). As clinical effects by a conventional therapy, the data of the clinical study of Sungkyunkwan University School of Medicine (Seoul, Korea), published in the Korean Journal of Urology (2001), were cited.
Tables 3 and 4 below respectively show the results for chronic prostatitis patients with administration of an antibiotic and an anti-inflammatory drug as conventional therapeutic agents and with administration of the zinc-aspartate chelate, in conjunction with the results for the control group.

[3] = test system: prostatitis-induced rats (Escherichia coli ATCC 25922); experiment: White rat model of chronic bacterial prostatitis, H&E histology of prostate
[4] = test system: prostate cancer cell line (R3327 AT-3.1); experiment: Prostate cancer model, growth of cancer cells injected into the prostate; format: in vivo, COP rat
Description: 10-week-old COP male rats (Japan SLC, Shizuoka, Japan) were housed and allowed to acclimate to the new environment for seven days prior to the experiment, in a breeding room maintained at a temperature of 22±2° C., humidity of 55±5%, and a 12-h light/dark (L/D) cycle (light from 8:00 a.m. to 8:00 p.m.).
5×10^4 cells/head of the prostate cancer cell line (R3327 AT-3.1) were injected into the prostate of animals and growth of cancer cells was measured.

[5] = Distribution of zinc in tissues (prostate, testis) after administration of zinc samples; format: in vivo, Sprague-Dawley rat
[6] = test system: ZnT-2; experiment: Expression of zinc transporter protein mRNA in prostatic tissue (RT-PCR); format: in vivo; conditions: compared to before oral administration of zinc
Description: In order to examine effects of zinc-aspartate complex on the expression of ZnT-2 and ZnT-4, known as zinc transporter proteins, experiments were carried out according to the following procedure.
Using Trizol Reagent (Invitrogen, USA), total RNA was extracted from 0.1 g of prostatic tissue. Using M-MLV reverse transcriptase (Invitrogen, USA), cDNA was synthesized from 5 μg of the extracted total RNA. 20 pmol of a primer was added to 3 μl of cDNA to make a volume of 20 μl and PCR was carried out as follows: initial denaturation at 95° C. for 5 min, followed by 26 cycles of denaturation at 94° C. for 1 min, annealing at an annealing temperature corresponding to conditions of each primer for 1 min and extension at 72° C. for 1 min, and final extension at 72° C. for 10 min.
PCR products were subjected to electrophoresis on 1.5% agarose gel containing EtBr, followed by confirmation of products under UV irradiation.
Effects of the zinc-aspartate complex, zinc sulfate and zinc arginine on the expression of mRNAs for ZnT-2, ZnT-4 and G3PDH were investigated.

[7] = 15 mg/kg/day oral, 30 days, H&E stained prostate sections
[8] = 4 and 8 hours after administration
[9] = 8 hours after administration, zinc 40 mg/kg, p<0.001

## O=S(=O)([O-])[O-].[Zn+2] [zinc sulfate]
[1]
  time point of maximum blood zinc level after administration: 2 h
  plasma zinc concentration over time: time-dependent increase

## N=C(N)NCCC[C@H](N)C(=O)O.[Zn] [zinc arginine]
[1]
  plasma zinc concentration compared to zinc sulfate-administered group: significant increase
  plasma zinc concentration over time: time-dependent increase

## zinc-aspartate chelate
[2]; 50 mg/day for 8 weeks, 34 patients
  side effects: no reports showing noticeable side effects
[2]; 8 weeks, oral administration, 50 mg/day, P 0.01
  NIH-CPSI Dysuria, after treatment: 4.02
[2]; 8 weeks, oral administration, 50 mg/day, P 0.036
  NIH-CPSI Pain, after treatment: 6.82
[2]; 8 weeks, oral administration, 50 mg/day, P 0.04
  NIH-CPSI Quality of life, after treatment: 2.61
[2]; baseline, n = 34
  NIH-CPSI Dysuria, before treatment: 5.53
  NIH-CPSI Pain, before treatment: 8.412
  NIH-CPSI Quality of life, before treatment: 3.53
[2]; chronic prostatitis patients, Tables 3 and 4
  therapeutic effects compared with conventional drug therapy and physical therapy: almost the similar level of therapeutic effects
[3]; [7]
  fibrosis in the interstitium: substantially no progress of fibrosis
  infiltration of inflammatory cells into and around glandular tissues: no infiltration of inflammatory cells
[3]; 15 mg/kg/day oral, 30 days, compared with normal group
  prostate tissue morphology: normal tissue morphology comparable to that of the normal group
[3]; E. coli inoculated prostate, oral administration, stained prostate tissues
  anti-inflammatory effects: excellent anti-inflammatory effects
[1]
  plasma zinc concentration compared to zinc sulfate-administered group: significant increase
  time point of maximum blood zinc level after administration: 2 h
  plasma zinc concentration over time: time-dependent increase
[4]; 10 mg/kg oral daily
  weight of tumor mass compared to the control group: significant weight reduction of tumor mass
[4]; 10 mg/kg oral daily vs DoceTaxel 10 mg/kg once a week I.P
  weight of tumor mass compared to the Taxel group: much lower weight of tumor mass
[5]; [8]
  intraprostatic zinc level compared to zinc sulfate- and zinc arginine-administered groups: significantly high zinc concentration
  intratesticular zinc level compared to zinc sulfate- and zinc arginine-administered groups: significantly high zinc concentration
[5]; [9]
  zinc concentration in testis: significantly high zinc concentration
  zinc concentration in the prostatic tissue: significantly high zinc concentration
[6]
  expression level of ZnT-2 mRNA: highest increase
